Laboratory results from patent publication US7790759B2, “Glycyrrhetinic acid-30-amide derivatives and their use” (Tianjin Institute of Pharmaceutical Research, priority 2005, dated 2010).

Key:
[1] = test system: writhing response; experiment: Analgesic effect: acetic acid-induced writhing response; type: in vivo, ICR mice; conditions: 50 mg/kg intragastric; for Writhing occurrence (x ± s): 0.6% acetic acid i.p. 1 h after administration, counted during 15 minutes, n = 10
Experimental: Male or female healthy ICR mice, each weighing 18-22 g, were used. Each mouse was injected intraperitoneally with 0.6% acetic acid in a dose of 0.2 ml one day before the test. The mice with the writhing response occurring in the range of 10-50 times were selected. The selected mice were grouped randomly into model, positive control and test groups based on the occurrence of the writhing response, with 10 animals for each group. The positive group was treated with aspirin in a dose of 50 mg/kg of body weight.
After fasting for at least 12 h, the animals were intragastrically administrated: the animals in model group are administered only with 1% CMCNa in the same amount. 1 h after administration, the mice were intraperitoneally injected with 0.6% acetic acid in a dose of 0.2 ml per animal. After 5 min, the occurrence of the writhing responses for one mouse was recorded during a period of 15 minutes. Based on the occurrence recorded, the inhibition rate of the active ingredient for writhing response was calculated. Inhibition rate=(means of the writhing occurrence for model group−means of the writhing occurrence for test group)/means of writhing occurrence for model group×100%. (3) Cough-prevention

[2] = test system: cough; experiment: Cough-prevention: ammonia-induced cough; type: in vivo, ICR mice; conditions: for Cough occurrence (x ± sd) / Inhibition rate of cough (%): 50 mg/kg intragastric; for Cough occurrence (x ± sd): ammonia 1 h after administration, observed within 5 min, n = 10; for Inhibition rate of cough (%): versus model group
Experimental: Male or female healthy ICR mice, each weighing 18-22 g, were used. They were grouped randomly into model, positive control and test groups based on body weight, with 10 animals for each group. The positive group was treated by codeine phosphate in a dose of 50 mg/kg of body weight.
After fasting for at least 12 h, the animals were intragastrically administrated: the animals in model group are administered only with 1% CMCNa in the same amount. To start the test, 1 h after administration, the mice were placed in a 500 ml container, into which a cotton ball sucking 0.3 ml of ammonia was added to cause coughing. The occurrence of cough was observed within 5 min. Inhibition rate of cough=(the cough occurrence for model group−the cough occurrence for test group)/the cough occurrence for model group×100%. (4) Aldosterone-like Side Effects

[3] = test system: swollen ear model; experiment: Anti-inflammatory effect: xylene-induced swollen ear model; type: in vivo, ICR mice; conditions: 40 mg/kg, intragastric, xylene on right ear 30 min after administration; weight ratio swollen ear to normal ear; n 8-10
Experimental: Male or female healthy ICR mice, each weighing 18-20 g, were grouped randomly into model, positive control and test groups based on body weight, with 8-10 animals for each group. The positive group was treated by hydrocortisone in a dose of 40 mg/kg of body weight.
The compound of formula I to be tested was administered intragastrically at a concentration of 2 mg/ml in a 1% CMCNa solution, while a 1% CMCNa solution alone was administered to the model group in the same amount. 30 min after administration, 50 μl of xylene solution was added dropwise into the right ear of each mouse to cause an inflammation reaction. 30 min later, the mice were killed by breaking the cervical vertebrae. Both ears were excised immediately from the mices, and punched in the same position with a puncher having a diameter of 0.6 cm. The obtained ear piece was weighed. For each mouse, the weight ratio of swollen ear to normal ear was regarded as an indication for the degree of swelling. Biostatistical analysis was performed using the Student's t test.

[4] = test system: Influenza virus A; experiment: Influenza virus A-infected mice models; type: in vivo; conditions: 100 mg/kg
[5] = test system: paracetamol/hepatitis mice models; experiment: Liver protection in paracetamol/hepatitis mice models; conditions: 100 mg/kg
[6] = Subacute toxicity within one month (death); type: in vivo; conditions: 300 mg/kg of body weight for one week
Experimental: (§1) Three compounds of formula I of the invention were selected to examine their subacute toxicity within one month, with dexamethasone and glycyrrhetinic acid as control. […] Furthermore, the level of aldosterone in blood plasma was determined. The level will decrease in a negative feedback way when an agent having aldosterone-like effects is administrated.

[7] = test system: aldosterone; type: in vivo; conditions: subacute toxicity study
Experimental: as §1

| Structure (SMILES) | Writhing occurrence (x ± s) [1] | Inhibition rate of writhing response (%) ([1]; versus model group) | Cough occurrence (x ± sd) [2] | Inhibition rate of cough (%) [2] [%] | Swelling degree of the swollen ear model (%) (x ± sd) [3] | further results |
| --- | --- | --- | --- | --- | --- | --- |
| CC1(C(=O)NCc2cc(-c3ccc(O)cc3)no2)CCC2(C)CCC3(C)C(=CC(=O)C4C5(C)CCC(O)C(C)(C)C5CCC43C)C2C1 (stereo not shown) [Compound G1, N-[(3-p-hydroxylphenyl-isoxazol-5-yl)methyl]-glycyrrhetinamide] | 16.33 ± 10.57 | 19.7 | 28.20 ± 15.39 | −1.44 | – | – |
| Cc1ccc(-c2cc(CNC(=O)C3(C)CCC4(C)CCC5(C)C(=CC(=O)C6C7(C)CCC(O)C(C)(C)C7CCC65C)C4C3)on2)cc1 (stereo not shown) [Compound G2, N-[(3-p-methylphenyl-isoxazol-5-yl)methyl]-glycyrrhetinamide] | – | – | – | – | 68.6 ± 29.5 | – |
| CC1(C(=O)NCc2cc(-c3ccc(F)cc3)no2)CCC2(C)CCC3(C)C(=CC(=O)C4C5(C)CCC(O)C(C)(C)C5CCC43C)C2C1 (stereo not shown) [Compound G3, N-[(3-p-fluorophenyl-isoxazol-5-yl)methyl]-glycyrrhetinamide] | – | – | – | – | 60.8 ± 27.9 | – |
| COc1ccccc1-c1cc(CNC(=O)C2(C)CCC3(C)CCC4(C)C(=CC(=O)C5C6(C)CCC(O)C(C)(C)C6CCC54C)C3C2)on1 (stereo not shown) [Compound G6, N-[(3-o-methoxyphenyl-isoxazol-5-yl)methyl]-glycyrrhetinamide] | – | – | – | – | 53.4 ± 35.2 | – |
| Cc1ccc(-c2cc(CNC(=O)[C@@]3(C)CC[C@]4(C)CC[C@]5(C)C(=CCC6[C@@]7(C)CC[C@H](O)C(C)(C)C7CC[C@]65C)[C@@H]4C3)on2)cc1 (stereo partly shown) [DG2, N-[(3-p-methylphenyl-isoxazol-5-yl)methyl]-11-deoxy-glycyrrhetinamide] | – | – | – | – | 80.2 ± 18.8 | – |
| CC1(C(=O)NCc2cc(-c3ccc(F)cc3)no2)CCC2(C)CCC3(C)C(=CCC4C5(C)CCC(O)C(C)(C)C5CCC43C)C2C1 (stereo not shown) [DG3, N-[(3-p-fluorophenyl-isoxazol-5-yl)methyl]-11-deoxy-glycyrrhetinamide] | 18.33 ± 13.56 | 9.8 | 17.70 ± 7.10 | 36.33 | 56.1 ± 28.3 | – |
| CC1(C)[C@@H](O)CC[C@]2(C)[C@H]3CC=C4[C@@H]5C[C@@](C)(C(=O)NCc6cc(-c7ccccc7Cl)no6)CC[C@]5(C)CC[C@@]4(C)[C@]3(C)CC[C@@H]12 [DG4, N-[(3-o-chlorophenyl-isoxazol-5-yl)methyl]-11-deoxy-glycyrrhetinamide] | 6.56 ± 6.19 | 67.8 | 18.80 ± 7.04 | 32.37 | – | Death rate caused by the virus infection [4]: decreased |
| COc1ccccc1-c1cc(CNC(=O)C2(C)CCC3(C)CCC4(C)C(=CCC5C6(C)CCC(O)C(C)(C)C6CCC54C)C3C2)on1 (stereo not shown) [DG6, N-[(3-o-methoxyphenyl-isoxazol-5-yl)methyl]-11-deoxy-glycyrrhetinamide] | 8.00 ± 6.48 | 60.7 | 22.60 ± 9.56 | 18.71 | 64.4 ± 29.2 | GPT [5]: decreased |
| Cc1cc(CNC(=O)C2(C)CCC3(C)CCC4(C)C(=CCC5C6(C)CCC(O)C(C)(C)C6CCC54C)C3C2)on1 (stereo not shown) [DG7, N-[(3-methyl-isoxazol-5-yl)methyl]-11-deoxy-glycyrrhetinamide] | 15.78 ± 12.43 | 22.4 | 20.40 ± 14.31 | 26.62 | – | – |
| CC1(C(=O)NCc2cc(-c3cccc(Cl)c3)no2)CCC2(C)CCC3(C)C(=CCC4C5(C)CCC(O)C(C)(C)C5CCC43C)C2C1 (stereo not shown) [DG8, N-[(3-m-chlorophenyl-isoxazol-5-yl)methyl]-11-deoxy-glycyrrhetinamide] | 15.89 ± 16.67 | 21.9 | 17.90 ± 8.21 | 35.61 | – | – |
| COc1ccccc1-c1cc(CNC(=O)[C@@]2(C)CC[C@]3(C)CC[C@]4(C)C(=CC(=O)[C@@H]5[C@@]6(C)CC[C@H](OC(C)=O)C(C)(C)[C@@H]6CC[C@]54C)[C@@H]3C2)on1 [RG1, N-[(3-o-methoxyphenyl-isoxazol-5-yl)methyl]-3-acetoxy-glycyrrhetinamide] | – | – | 17.64 ± 6.34 | 36.55 | – | – |
| CC(=O)Oc1ccccc1C(=O)O [aspirin, reference compound] | 5.44 ± 5.87 | – | – | – | – | inhibition at 50 mg/kg ([1]; Mus musculus, po, versus model group, read-out: Inhibition rate of writhing response (%)): 73.2% |
| COc1ccc2c3c1O[C@H]1[C@@H](O)C=C[C@H]4[C@@H](C2)N(C)CC[C@@]341 [codeine phosphate, reference compound] | – | – | 8.40 ± 8.95 | – | – | inhibition at 50 mg/kg ([2]; Mus musculus, po, read-out: Inhibition rate of cough (%)): 69.8% |
| C[C@@H]1C[C@H]2[C@@H]3CCC4=CC(=O)C=C[C@]4(C)[C@@]3(F)[C@@H](O)C[C@]2(C)[C@@]1(O)C(=O)CO [dexamethasone] | – | – | – | – | – | Death in subacute toxicity test [6]: All the animals died |
| CC1(C)[C@@H](O)CC[C@]2(C)[C@H]3C(=O)C=C4[C@@H]5C[C@@](C)(C(=O)O)CC[C@]5(C)CC[C@@]4(C)[C@]3(C)CC[C@@H]12 [glycyrrhetinic acid] | – | – | – | – | – | Aldosterone level in blood plasma (ng/ml) (x ± sd) ([7]; 300 mg/kg, n = 8): 68.3 ± 12.5 ng/mL; Aldosterone-like effects (decrease of plasma aldosterone by negative feedback) [7]: confirmed the aldosterone-like effects; Death in subacute toxicity test [6]: no death was observed |
| C[C@]12CCC(=O)C=C1CC[C@@H]1[C@@H]2[C@@H](O)C[C@@]2(C)[C@H]1CC[C@]2(O)C(=O)CO [hydrocortisone, reference compound] | – | – | – | – | 55.7 ± 35.4 | – |
